Measured values: patent US10709723B2, “Pharmaceutical anti-infective composition for inhalation” (GALEPHAR PHARMACEUTICAL RESEARCH, INC., priority 2006, dated 2020)
In brackets after ≈: the same amount, converted by molar mass. Where two headings read alike, the source gives them in different places.

What was measured:
[1] = In vitro lung deposition, Multistage Liquid Impinger (MLI); format: physicochemical; conditions: for lung concentration obtained per capsule: composition of example 6, epithelial liquid in the lung estimated at about 100 ml
Excerpt: The amount of macrolide agent inhaled shall be high enough to affect, in some way, the biofilm. It has to be noted that as the effect of macrolide derivatives on the biofilm is mediated through a non-antibacterial mechanism. […] Nevertheless, it is a another object of the present invention to provide a composition containing high concentrations (or amounts) of each of the aminoglycoside derivative and of the macrolide derivative i.e. at least more than 10%, preferably more than 15%, and more preferably more than 20% of the dry powder composition. It is indeed particularly interesting to achieve high lung doses of those therapeutic agents with the minimum amounts of inhalations because it makes the administration easier and more importantly increase the patient's compliance. It also decreases the nominal dose of each active ingredient and thus the adverse effects linked to these actives. In the present invention, the dry powder inhaler also provides a high Fine Particle Dose (FPD) and Fine Particle […] (FPF) when tested in vitro on a Multistage Liquid Impinger (MLI, Eur. Pharm, 5th Edition, chapter 2.9.18). The FPD and FPF are the parameters that predict in vivo lung deposition.
The in vitro lung deposition test was performed using equipment and conditions as described in the European Pharmacopoeia (5th edition, chapter 2.9.18—apparatus C). This equipment consists of a Multistage Liquid Impinger (MLI) and was operated with an air flow of 100 L/min during a period of time of 2.4 seconds to simulate inhalation capabilities of patients. The quantification of the deposition of each drug on each stage of the MLI was performed by HPLC equipped with a a Corona detector.

[2] = tested on: planktonic Pseudomonas aeruginosa; assay: MIC on planktonic bacteria (NCCLS dilution standard); format: cell-based
Method: The determination of the minimal inhibitory concentration (MIC) is performed according to the standard of NCCLS (NCCLS, Methods for dilution Antimicrobial Susceptibility Tests for bacteria that grow aerobically; approved standards, sixth edition, M7-A6, vol. 23 no. 2, January 2003.

[3] = tested on: 12 day biofilm of Pseudomonas aeruginosa; assay: Bacterial count (CFU/ml) of 12-day biofilm after 24 hours with the products; format: cell-based; conditions: tobramycin 4 μg/ml alone; clarithromycin 100, 200 and 500 μg/ml alone; all combinations
Excerpt: Biofilms of Pseudomonas aeruginosa—strain PY O1 were formed according to the methods described by Ceri et al, the calgary biofilm device: new technology for rapid determination of antibiotic susceptibilities of bacterial biofilms, Journal of clinical microbiology, pp. 1771-1776, 1999 and Abdi-Ali et al, bactericidal activity of various antibiotics against biofilm-producing Pseudomonas aeruginosa, International Journal of Antimicrobial Agents 27, 196-200, 2006.
PY O1: is a cystic Fibrosis clinical mucoid strain of Pseudomonas aeruginosa received from the Erasme Hospital, Brussels.
After having shown that the number of Pseudomonas aeruginosa within the biofilms was stable after 12 days, the products listed in Table 1 were added to the media for the duration of 24 hours. Thereafter the biofilm was rinsed three times with a 0.01M phosphate buffer adjusted at pH 7.5 in order to remove all cells not bound to the biofilm. The microplate was then placed on ultrasonic bath at 35° C. for 5 minutes to allow the bacteria present in the biofilm to separate from such biofilm. A bacterial count was then performed (number of coloning forming unit CFU/ml). Each experience was done twice and the CFU counting was also repeated twice/experience.

[4] = composition of example 6, 10 mg/capsule, MLI 100 L/min, Mean (n = 3)
[5] = composition of example 6, 10 mg/capsule, MLI 100 L/min, run MLI1
[6] = composition of example 6, 10 mg/capsule, MLI 100 L/min, run MLI2
[7] = composition of example 6, 10 mg/capsule, MLI 100 L/min, run MLI3

Row | FPD [1, 4] [mg] | Filter deposition [1, 4] [mg] | FPD [1, 5] [mg] | FPD [1, 6] [mg] | FPD [1, 7] [mg] | Stage 2 deposition [1, 7] [mg] | lung concentration obtained per capsule [1] [µg/mL] | MIC [2] | MIC ([2]; read-out: MIC) [µg/mL] | SMILES | Decrease of the number of CFU/ml of the 12-day biofilm versus the positive control [3]
1 | 3.63 | 0.550 | 3.14 | 3.76 | 3.98 | 0.680 | 36.3 | not sensitive |  | CC[C@H]1OC(=O)[C@H](C)[C@@H](O[C@H]2C[C@@](C)(OC)[C@@H](O)[C@H](C)O2)[C@H](C)[C@@H](O[C@@H]2O[C@H](C)C[C@H](N(C)C)[C@H]2O)[C@](C)(OC)C[C@@H](C)C(=O)[C@H](C)[C@@H](O)[C@]1(C)O [Clarithromycin] | neither tobramycin 4 μg/ml nor clarithromycin at 100, 200 and 500 μg/ml alone are able to decrease the number of CFU/ml
2 | 4.26 | 0.760 | 3.60 | 4.45 | 4.72 |  | 42.6 |  | 3.9 (≈ 8.34 µM) | NC[C@H]1O[C@H](O[C@H]2[C@H](O)[C@@H](O[C@H]3O[C@H](CO)[C@@H](O)[C@H](N)[C@H]3O)[C@H](N)C[C@@H]2N)[C@H](N)C[C@@H]1O [Tobramycin] | neither tobramycin 4 μg/ml nor clarithromycin at 100, 200 and 500 μg/ml alone are able to decrease the number of CFU/ml
